Measurements as given in patent US11155517B2, “4-substituted phenylamine derivatives and their use to protect crops by fighting undesired phytopathogenic micoorganisms” (PI INDUSTRIES LTD., priority 2016, dated 2021).
Counter-ions that a name gives are not always drawn.

Columns and labels:
Type in all cases: cell-based
[1] = test system: Botrytis cinerea; assay: Botrytis cinerea (gray mold) in vitro test, radial growth on Potato Dextrose Agar; conditions: 168 h, 300 ppm, seven days, 22° C., read-out: % (control) compared to the untreated check (radial growth)
[2] = test system: Pyricularia oryzae; assay: microbe, parasite or virus in culture; conditions: 168 h, read-out: % control compared to the untreated check (radial growth)
[3] = test system: Alternaria solani; assay: Alternaria solani (early blight of tomato/potato) in vitro test, radial growth on Potato Dextrose Agar; conditions: 168 h, 300 ppm, seven days, 25° C., read-out: % control compared to the untreated check (radial growth)
[4] = test system: Rhizoctonia solani; assay: Rhizoctonia solani (rice sheath blight/potato black scurf) in vitro test, radial growth on Potato Dextrose Agar; conditions: 168 h, 300 ppm, seven days, 25° C., read-out: % control compared to the untreated check (radial growth)

CCN(C)C=Nc1cc(C)c(C(C#N)c2ccc(C(F)(F)F)cc2)cc1Cl (stereo not shown) [Compound 187, N′-(2-chloro-4-(cyano(4-(trifluoromethyl)phenyl)methyl)-5-methylphenyl)-N-ethyl-N-methylformimidamide]
inhibition of growth at 300 ppm [1]: > 80%

Cc1cc(N=CN2CCOCC2)c(Cl)cc1Cc1cccc(F)c1 [Compound 38, N-(2-chloro-4-(3-fluorobenzyl)-5-methylphenyl)-1-morpholinomethanimine]
inhibition of growth at 300 ppm [2]: > 75%

Cc1cc(N=CNC#N)c(C)cc1Cc1ccccc1Cl [Compound 65, N′-(4-(2-chlorobenzyl)-2,5-dimethylphenyl)-N-cyanoformimidamide]
inhibition of growth at 300 ppm [1]: > 80%

CCN(C)C=Nc1cc(F)c(Cc2ccccc2F)cc1F [Compound 242, N′-(2,5-difluoro-4-(2-fluorobenzyl)phenyl)-N-ethyl-N-methylformimidamide]
inhibition of growth at 300 ppm [1]: > 80% | inhibition of growth at 300 ppm [3]: > 75% | inhibition of growth at 300 ppm [2]: > 75%

CCN(C)C=Nc1cc(C)c(C(C#N)c2cccc(F)c2)cc1Cl (stereo not shown) [Compound 194, N′-(2-chloro-4-(cyano(3-fluorophenyl)methyl)-5-methylphenyl)-N-ethyl-N-methylformimidamide]
inhibition of growth at 300 ppm [2]: > 75%

CCN(C)C=Nc1cc(C)c(C(C#N)c2cccc(C(F)(F)F)c2)cc1Cl (stereo not shown) [Compound 272, N′-(2-chloro-4-(cyano(3-(trifluoromethyl)phenyl)methyl)-5-methylphenyl)-N-ethyl-N-methylformimidamide hydrochloride]
inhibition of growth at 300 ppm [3]: > 75%

COC=Nc1c(C)cc(Cc2ccc(Br)cc2)c(C)c1Br [Compound 217, methyl N-(2-bromo-4-(4-bromobenzyl)-3,6-dimethylphenyl)formimidate]
inhibition of growth at 300 ppm [1]: > 80%

CCN(C)C=Nc1cc(Cl)c(C(C(=O)OC)c2cccc(Cl)c2)cc1C (stereo not shown) [Compound 237, methyl 2-(2-chloro-4-(((ethyl(methyl)amino)methylene)amino)-5-methylphenyl)-2-(3-chlorophenyl)acetate]
inhibition of growth at 300 ppm [3]: > 75% | inhibition of growth at 300 ppm [2]: > 75%

CON(C)C=Nc1cc(C)c(Cc2ccccc2F)cc1C [Compound 61, N′-(4-(2-fluorobenzyl)-2,5-dimethylphenyl)-N-methoxy-N-methylformimidamide]
inhibition of growth at 300 ppm [3]: > 75% | inhibition of growth at 300 ppm [4]: > 80% | inhibition of growth at 300 ppm [2]: > 75%

CCN(C)C=Nc1cc(C)c(Cc2ccc(C)cc2)cc1S(C)(=O)=O [Compound 235, N-ethyl-N-methyl-N′-(5-methyl-4-(4-methylbenzyl)-2-(methylsulfonyl)phenyl)formimidamide]
inhibition of growth at 300 ppm [1]: > 80%

CCN(C)C=Nc1cc(C)c(C(C#N)c2ccc(F)c(Cl)c2)cc1Cl (stereo not shown) [Compound 190, N′-(2-chloro-4-((3-chloro-4-fluorophenyl)(cyano)methyl)-5-methylphenyl)-N-ethyl-N-methylformimidamide]
inhibition of growth at 300 ppm [1]: > 80% | inhibition of growth at 300 ppm [2]: > 75%

CCN(C)C=Nc1cc(C)c(Cc2cccc(F)c2Cl)cc1Cl [Compound 125, N′-(2-chloro-4-(2-chloro-3-fluorobenzyl)-5-methylphenyl)-N-ethyl-N-methylformimidamide]
inhibition of growth at 300 ppm [3]: > 75% | inhibition of growth at 300 ppm [2]: > 75%

CCN(C)C=Nc1cc(C)c(Cc2ccccn2)cc1C [Compound 202, N′-(2,5-dimethyl-4-(pyridin-2-ylmethyl)phenyl)-N-ethyl-N-methylformimidamide]
inhibition of growth at 300 ppm [3]: > 75% | inhibition of growth at 300 ppm [2]: > 75%

CCN(C)C=Nc1cc(C(F)(F)F)c(Cc2cccc(OC(F)(F)F)c2)cc1F [Compound 233, N-ethyl-N′-(2-fluoro-4-(3-(trifluoromethoxy)benzyl)-5-(trifluoromethyl)phenyl)-N-methylformimidamide]
inhibition of growth at 300 ppm [1]: > 80% | inhibition of growth at 300 ppm [3]: > 75% | inhibition of growth at 300 ppm [2]: > 75%

C=C(c1ccc(Br)cc1)c1cc(C)c(N=CN(C)CC)cc1Cl [Compound 238, N′-(4-(1-(4-bromophenyl)vinyl)-5-chloro-2-methylphenyl)-N-ethyl-N-methylformimidamide]
inhibition of growth at 300 ppm [1]: > 80% | inhibition of growth at 300 ppm [3]: > 75% | inhibition of growth at 300 ppm [2]: > 75%

CCN(C)C=Nc1cc(C)c(C(C#N)c2cccc(C(F)(F)F)c2)cc1Cl (stereo not shown) [Compound 188, N′-(2-chloro-4-(cyano(3-(trifluoromethyl)phenyl)methyl)-5-methylphenyl)-N-ethyl-N-methylformimidamide]
inhibition of growth at 300 ppm [1]: > 80% | inhibition of growth at 300 ppm [2]: > 75%

CCN(C)C=Nc1cc(C(F)(F)F)c(Cc2cccc(C)c2)cc1F [Compound 231, N-ethyl-N′-(2-fluoro-4-(3-methylbenzyl)-5-(trifluoromethyl)phenyl)-N-methylformimidamide]
inhibition of growth at 300 ppm [3]: > 75% | inhibition of growth at 300 ppm [4]: > 80% | inhibition of growth at 300 ppm [2]: > 75%

CCN(C)C=Nc1cc(C(F)(F)F)c(Cc2ccccc2Cl)cc1F [Compound 226, N′-(4-(2-chlorobenzyl)-2-fluoro-5-(trifluoromethyl)phenyl)-N-ethyl-N-methylformimidamide]
inhibition of growth at 300 ppm [3]: > 75% | inhibition of growth at 300 ppm [4]: > 80% | inhibition of growth at 300 ppm [2]: > 75%

CCN(C)C=Nc1cc(C(F)(F)F)c(Cc2ccccc2F)cc1F [Compound 227, N-ethyl-N′-(2-fluoro-4-(2-fluorobenzyl)-5-(trifluoromethyl)phenyl)-N-methylformimidamide]
inhibition of growth at 300 ppm [3]: > 75% | inhibition of growth at 300 ppm [4]: > 80% | inhibition of growth at 300 ppm [2]: > 75%

CCN(C)C=Nc1cc(C)c(Cc2ccccc2C)cc1S(C)(=O)=O [Compound 234, N-ethyl-N-methyl-N′-(5-methyl-4-(2-methylbenzyl)-2-(methylsulfonyl)phenyl)formimidamide]
inhibition of growth at 300 ppm [1]: > 80% | inhibition of growth at 300 ppm [3]: > 75% | inhibition of growth at 300 ppm [2]: > 75%

CCN(C)C=Nc1cc(Cl)c(Cc2ccccc2Cl)cc1Cl [Compound 150, N′-(2,5-dichloro-4-(2-chlorobenzyl)phenyl)-N-ethyl-N-methylformimidamide]
inhibition of growth at 300 ppm [3]: > 75% | inhibition of growth at 300 ppm [2]: > 75%

CCN(C)C=Nc1c(C)cc(C(F)(F)c2ccccc2)c(C)c1I [Compound 73, N′-(4-(difluoro(phenyl)methyl)-2-iodo-3,6-dimethylphenyl)-N-ethyl-N-methylformimidamide]
inhibition of growth at 300 ppm [2]: > 75%

CCN(C)C=Nc1cc(C)c(Cc2cc(C(F)(F)F)cc(Cl)c2F)cc1Cl [Compound 126, N′-(2-chloro-4-(3-chloro-2-fluoro-5-(trifluoromethyl)benzyl)-5-methylphenyl)-N-ethyl-N-methylformimidamide]
inhibition of growth at 300 ppm [3]: > 75% | inhibition of growth at 300 ppm [2]: > 75%

CCN(C)C=Nc1cc(C)c(Cc2cccc(Cl)c2)cc1S(C)(=O)=O [Compound 218, N′-(4-(3-chlorobenzyl)-5-methyl-2-(methylsulfonyl)phenyl)-N-ethyl-N-methylformimidamide]
inhibition of growth at 300 ppm [3]: > 75%

CCN(C)C=Nc1cc(Cl)c(Cc2ccc(C)cc2)cc1Cl [Compound 147, N′-(2,5-dichloro-4-(4-methylbenzyl)phenyl)-N-ethyl-N-methylformimidamide]
inhibition of growth at 300 ppm [3]: > 75% | inhibition of growth at 300 ppm [4]: > 80%
